Data from US11078202B2, “β-lactamase inhibitor and use thereof” (priority 2018, dated 2021).
Counter-ions that a name gives are not always drawn.

Key:
Assay type in all cases: cell-based
[1] = tested on: Acinetobacter baumannii XNWB 0007; assay: MIC assay of test compounds combined with ceftazidime (8 μg/mL); settings: ceftazidime 8 μg/mL fixed
In short: (§1)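 MIC determined by CLSI-guided broth microdilution in CAMHB after 16-20 h at 35±2 °C, with growth and sterile control wells. Test compound series co-dosed with fixed-level ceftazidime or imipenem; inoculum from TSA-grown colonies, adjusted to OD600 0.1-0.15 then diluted 300-fold.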

[2] = tested on: Klebsiella pneumoniae XNWB 0001; assay: as above; settings: ceftazidime 8 μg/mL fixed
In short: as §1

[3] = tested on: Klebsiella pneumoniae XNWB 0002; assay: as above; settings: ceftazidime 8 μg/mL fixed
In short: as §1

[4] = tested on: Klebsiella pneumoniae XNWB 0003; assay: as above; settings: ceftazidime 8 μg/mL fixed
In short: as §1

[5] = tested on: Klebsiella pneumoniae XNWB 0004; assay: as above; settings: ceftazidime 8 μg/mL fixed
In short: as §1

[6] = tested on: Klebsiella pneumoniae XNWB 0005; assay: as above; settings: ceftazidime 8 μg/mL fixed
In short: as §1

[7] = tested on: Klebsiella pneumoniae XNWB 0006; assay: as above; settings: ceftazidime 8 μg/mL fixed
In short: as §1

[8] = tested on: Pseudomonas aeruginosa XNWB 0008; assay: as above; settings: ceftazidime 8 μg/mL fixed
In short: as §1

[9] = tested on: Acinetobacter baumannii XNWB 0007; assay: MIC assay of test compounds combined with imipenem (4 μg/mL); settings: imipenem 4 μg/mL fixed
In short: as §1

[10] = tested on: Klebsiella pneumoniae XNWB 0001; assay: as above; settings: imipenem 4 μg/mL fixed
In short: as §1

[11] = tested on: Klebsiella pneumoniae XNWB 0002; assay: as above; settings: imipenem 4 μg/mL fixed
In short: as §1

[12] = tested on: Klebsiella pneumoniae XNWB 0003; assay: as above; settings: imipenem 4 μg/mL fixed
In short: as §1

[13] = tested on: Klebsiella pneumoniae XNWB 0004; assay: as above; settings: imipenem 4 μg/mL fixed
In short: as §1

[14] = tested on: Klebsiella pneumoniae XNWB 0005; assay: as above; settings: imipenem 4 μg/mL fixed
In short: as §1

[15] = tested on: Klebsiella pneumoniae XNWB 0006; assay: as above; settings: imipenem 4 μg/mL fixed
In short: as §1

[16] = tested on: Pseudomonas aeruginosa XNWB 0008; assay: as above; settings: imipenem 4 μg/mL fixed
In short: as §1

Compound	The minimum concentration of test compounds combined with ceftazidime (8 μg/mL) for bacteriostasis [1]	The minimum concentration of test compounds combined with ceftazidime (8 μg/mL) for bacteriostasis [2]	The minimum concentration of test compounds combined with ceftazidime (8 μg/mL) for bacteriostasis [3]	The minimum concentration of test compounds combined with ceftazidime (8 μg/mL) for bacteriostasis [4]	The minimum concentration of test compounds combined with ceftazidime (8 μg/mL) for bacteriostasis [5]	The minimum concentration of test compounds combined with ceftazidime (8 μg/mL) for bacteriostasis [6]	The minimum concentration of test compounds combined with ceftazidime (8 μg/mL) for bacteriostasis [7]	The minimum concentration of test compounds combined with ceftazidime (8 μg/mL) for bacteriostasis [8]	The minimum concentration of test compounds combined with imipenem (4 μg/mL) for bacteriostasis [9]	The minimum concentration of test compounds combined with imipenem (4 μg/mL) for bacteriostasis [10]	The minimum concentration of test compounds combined with imipenem (4 μg/mL) for bacteriostasis [11]	The minimum concentration of test compounds combined with imipenem (4 μg/mL) for bacteriostasis [12]	The minimum concentration of test compounds combined with imipenem (4 μg/mL) for bacteriostasis [13]	The minimum concentration of test compounds combined with imipenem (4 μg/mL) for bacteriostasis [14]	The minimum concentration of test compounds combined with imipenem (4 μg/mL) for bacteriostasis [15]	The minimum concentration of test compounds combined with imipenem (4 μg/mL) for bacteriostasis [16]
N=C(N)N1CCC(NCCc2cc([C@@H]3CC4(CC4)[C@@H]4CN3C(=O)N4OS(=O)(=O)O)no2)CC1 [Example 47, (1R,4S)-4-(5-(2-((1-amidinopiperidin-4-yl)amino)ethyl)isoxazol-3-yl)-6-oxo-5,7-diazaspiro[bicyclo[3.2.1]octane-2,1′-cyclopropan]-7-yl sulfate]	C (C: 16-128 μg/mL)	B (B: 8-16 μg/mL)	A (A: <8 μg/mL)	C (C: 16-128 μg/mL)	C (C: 16-128 μg/mL)	C (C: 16-128 μg/mL)	B (B: 8-16 μg/mL)	C (C: 16-128 μg/mL)	C (C: 16-128 μg/mL)	A (A: <8 μg/mL)	A (A: <8 μg/mL)	A (A: <8 μg/mL)	A (A: <8 μg/mL)	A (A: <8 μg/mL)	A (A: <8 μg/mL)	A (A: <8 μg/mL)
N[C@@H]1CCC(c2nnc([C@@H]3CC4(CC4)[C@@H]4CN3C(=O)N4OS(=O)(=O)O)o2)C1 (stereo in doubt) [Example 18, (1R,4S)-4-(5-((1R,3R)-3-aminocyclopentyl)-1,3,4-oxadiazol-2-yl)-6-oxo-5,7-diazaspiro [bicyclo[3.2.1]octane-2,1′-cyclopropan]-7-yl sulfate]	C (C: 16-128 μg/mL)	A (A: <8 μg/mL)	A (A: <8 μg/mL)	A (A: <8 μg/mL)	B (B: 8-16 μg/mL)	A (A: <8 μg/mL)	A (A: <8 μg/mL)	B (B: 8-16 μg/mL)	B (B: 8-16 μg/mL)	A (A: <8 μg/mL)	A (A: <8 μg/mL)	A (A: <8 μg/mL)	A (A: <8 μg/mL)	A (A: <8 μg/mL)	A (A: <8 μg/mL)	A (A: <8 μg/mL)
N=C(N)NC[C@H](O)c1cc([C@@H]2CC3(CC3)[C@@H]3CN2C(=O)N3OS(=O)(=O)O)no1 [Example 39, (1R,4S)-4-(5-((S)-2-guanidyl-1-hydroxyethyl)isoxazol-3-yl)-6-oxo-5,7-diazaspiro [bicyclo[3.2.1]octane-2,1′-cyclopropan]-7-yl sulfate]	C (C: 16-128 μg/mL)	A (A: <8 μg/mL)	A (A: <8 μg/mL)	A (A: <8 μg/mL)	A (A: <8 μg/mL)	A (A: <8 μg/mL)	A (A: <8 μg/mL)	B (B: 8-16 μg/mL)	B (B: 8-16 μg/mL)	A (A: <8 μg/mL)	A (A: <8 μg/mL)	A (A: <8 μg/mL)	A (A: <8 μg/mL)	A (A: <8 μg/mL)	A (A: <8 μg/mL)	A (A: <8 μg/mL)
CNC1(Cc2nnc([C@@H]3CC4(CC4)[C@@H]4CN3C(=O)N4OS(=O)(=O)O)o2)CC1 [Example 22, (1R,4S)-4-(5-((1-(methylamino)cyclopropyl)methyl)-1,3,4-oxadiazol-2-yl)-6-oxo-5,7-diazaspiro[bicyclo[3.2.1]octane-2,1′-cyclopropan]-7-yl sulfate]	C (C: 16-128 μg/mL)	B (B: 8-16 μg/mL)	A (A: <8 μg/mL)	B (B: 8-16 μg/mL)	C (C: 16-128 μg/mL)	B (B: 8-16 μg/mL)	A (A: <8 μg/mL)	C (C: 16-128 μg/mL)	C (C: 16-128 μg/mL)	A (A: <8 μg/mL)	A (A: <8 μg/mL)	A (A: <8 μg/mL)	A (A: <8 μg/mL)	A (A: <8 μg/mL)	A (A: <8 μg/mL)	C (C: 16-128 μg/mL)
N[C@H]1C[C@H](c2cc([C@@H]3CC4(CC4)[C@@H]4CN3C(=O)N4OS(=O)(=O)O)no2)C1 [Example 25, (1R,4S)-4-(5-((1S,3S)-3-aminocyclobutyl)isoxazol-3-yl)-6-oxo-5,7-diazaspiro[bicycle [3.2.1]octane-2,1′-cyclopropan]-7-yl sulfate]	C (C: 16-128 μg/mL)	A (A: <8 μg/mL)	A (A: <8 μg/mL)	A (A: <8 μg/mL)	B (B: 8-16 μg/mL)	A (A: <8 μg/mL)	A (A: <8 μg/mL)	B (B: 8-16 μg/mL)	C (C: 16-128 μg/mL)	A (A: <8 μg/mL)	A (A: <8 μg/mL)	A (A: <8 μg/mL)	A (A: <8 μg/mL)	A (A: <8 μg/mL)	A (A: <8 μg/mL)	A (A: <8 μg/mL)
